Counter-ions that a name gives are not always drawn.
Experiments:
Details in all cases: 72 h
Caco-2 [1] = test: cell viability relative to DMSO; higher = less toxic
Calu-3 [2] = test: as above
HepG2 [3] = test: as above
U2OS [4] = test: as above
Vero E6 [5] = test: as above
Caco-2 [6] = test: relative viability EC50 (midpoint between 100% and the lowest measured viability); higher = less toxic
HepG2 [7] = test: as above
U2OS [8] = test: as above
Vero E6 [9] = test: as above
Caco-2 [10] = test: drug sensitivity score (DSS) for viability; higher = more toxic; extreme values may be limits of the assay
Calu-3 [11] = test: as above
HepG2 [12] = test: as above
U2OS [13] = test: as above
Vero E6 [14] = test: as above

Row | SMILES | cell viability (Caco-2 [1]; 1 nM) [%] | cell viability (Caco-2 [1]; 10 nM) [%] | cell viability (Caco-2 [1]; 100 nM) [%] | cell viability (Caco-2 [1]; 1000 nM) [%] | cell viability (Caco-2 [1]; 10000 nM) [%] | cell viability (Calu-3 [2]; 1 nM) [%] | cell viability (Calu-3 [2]; 10 nM) [%] | cell viability (Calu-3 [2]; 100 nM) [%] | cell viability (Calu-3 [2]; 1000 nM) [%] | cell viability (Calu-3 [2]; 10000 nM) [%] | cell viability (HepG2 [3]; 1 nM) [%] | cell viability (HepG2 [3]; 10 nM) [%] | cell viability (HepG2 [3]; 100 nM) [%] | cell viability (HepG2 [3]; 1000 nM) [%] | cell viability (HepG2 [3]; 10000 nM) [%] | cell viability (U2OS [4]; 1 nM) [%] | cell viability (U2OS [4]; 10 nM) [%] | cell viability (U2OS [4]; 100 nM) [%] | cell viability (U2OS [4]; 1000 nM) [%] | cell viability (U2OS [4]; 10000 nM) [%] | cell viability (Vero E6 [5]; 1 nM) [%] | cell viability (Vero E6 [5]; 10 nM) [%] | cell viability (Vero E6 [5]; 100 nM) [%] | cell viability (Vero E6 [5]; 1000 nM) [%] | cell viability (Vero E6 [5]; 10000 nM) [%] | relative viability EC50 (Caco-2 [6]) [µM] | relative viability EC50 (HepG2 [7]) [µM] | relative viability EC50 (U2OS [8]) [µM] | relative viability EC50 (Vero E6 [9]) [µM] | drug sensitivity score (Caco-2 [10]) | drug sensitivity score (Calu-3 [11]) | drug sensitivity score (HepG2 [12]) | drug sensitivity score (U2OS [13]) | drug sensitivity score (Vero E6 [14])
1 | CC(=O)O/N=C1\C(=O)N(Cc2cc(Cl)ccc2Cl)c2ccc(Cl)cc21 | 97.3 | 92 | 104 | 91 | 83.9 | 103 | 90.7 | 93.9 | 98.4 | 61.8 | 97.9 | 97.7 | 104 | 108 | 86.9 | 100 | 99 | 97.7 | 96.6 | 97.3 | 98.3 | 105 | 97.3 | 98.7 | 97.9 | > 10 | > 10 | > 10 | > 10 | 1 | 2.1 | 0 | 0 | 0
2 | N[C@@H](CC(=O)Nc1ccc(Oc2cc(F)c(F)cc2Br)cc1)C(=O)O | 94.8 | 88.1 | 98.6 | 87 | 99 |  |  |  |  |  | 94.2 | 92.6 | 91.7 | 111 | 104 | 99 | 94.4 | 101 | 94.7 | 102 | 91 | 98.3 | 95.1 | 101 | 105 | > 10 | > 10 | > 10 | > 10 | 0 |  | 0 | 0 | 0
3 | O=C(Nc1ccc([N+](=O)[O-])cc1O)Nc1ccccc1Br | 98.6 | 103 | 102 | 77 | 40.5 | 102 | 98.2 | 88.4 | 108 | 59.3 | 89.9 | 101 | 89.7 | 92 | 32.5 | 98.3 | 99.6 | 96.9 | 87 | 36.6 | 101 | 98.3 | 94.5 | 85.7 | 34.8 | 1.2 | 2.19 | 1.72 | 1.66 | 6.4 | 1.6 | 5.1 | 5.6 | 5.9
4 | CCN(CC)CCOC(=O)C(Cc1cccc2ccccc12)CC1CCCO1 (mixture of isomers) [naftidrofuryl] |  |  |  |  |  |  |  |  |  |  |  |  |  |  |  |  |  |  |  |  |  |  |  |  |  |  |  |  |  |  | 0 |  |  | 0.2
5 | c1ccc(CCCCN2CCC(c3ccccc3)CC2)cc1 [4-PPBP] | 94.7 | 94.9 | 89.8 | 86.1 | 84.4 | 93 | 111 | 96.7 | 95.1 | 69.3 | 99.8 | 103 | 101 | 93.8 | 77.9 | 90.7 | 91.2 | 96.1 | 94.7 | 84.6 | 100 | 102 | 102 | 99.7 | 90 | > 10 | > 10 | > 10 | > 10 | 1.4 | 2.2 | 1.6 | 0 | 0
6 | COc1cc(N2CCC(N3CCN(C)CC3)CC2)ccc1Nc1ncnc(Nc2ccccc2S(=O)(=O)C(C)C)n1 [ASP3026] | 102 | 101 | 95.7 | 92.7 | 68.6 |  |  |  |  |  | 107 | 96.6 | 99.7 | 88.7 | 25.2 | 100 | 94.5 | 99.6 | 98.5 | 70.9 | 92.9 | 97.9 | 100 | 90.9 | 51.7 |  | 1.98 |  |  | 2.5 |  | 6 | 1.4 | 4
7 | COc1cccc(-c2cc(NCc3ccc4c(c3)OCO4)nc(N)n2)c1 [BML-284] | 104 | 93.4 | 102 | 62.4 | 46.6 | 104 | 92.9 | 102 | 66.9 | 62.4 | 97.7 | 97.2 | 93.9 | 52.9 | 30.5 | 92.8 | 97 | 95.8 | 49.8 | 27.7 | 102 | 99.9 | 101 | 29.8 | 27.6 | 0.707 | 0.572 | 0.59 | 0.349 | 7.3 | 5.8 | 9.8 | 10.3 | 12.8
8 | N=c1ccn2c(n1)O[C@H]1[C@H](O)[C@@H](CO)O[C@H]12 [Cyclocytidine HCl] | 88.4 | 99.2 | 83.1 | 80.6 | 77.8 | 91.5 | 99.2 | 101 | 93 | 65.9 | 104 | 103 | 74.1 | 38 | 37.7 | 95.1 | 99.9 | 99.8 | 97.2 | 74.8 | 98.1 | 97.1 | 98.5 | 87.4 | 58.3 | > 10 | 0.115 |  |  | 3.7 | 2.7 | 15 | 1.4 | 4
9 | Cc1c(C)c2c(c(C)c1OC(=O)CCC(=O)O)CC[C@@](C)(CCC[C@H](C)CCC[C@H](C)CCCC(C)C)O2 [D-alpha-tocopheryl-succinate] | 98.2 | 104 | 106 | 96.5 | 102 |  |  |  |  |  | 95.4 | 109 | 95.3 | 106 | 113 |  |  |  |  |  | 97.8 | 101 | 97.9 | 102 | 111 | > 10 | > 10 |  | > 10 | 0 |  | 0 |  | 0
10 | COc1cc(OC)c(/C=C2/C(=O)Nc3ccccc32)c(OC)c1 [IC261] | 96.9 | 92.9 | 95.1 | 90.5 | 57.6 | 90.1 | 97 | 95.9 | 96.7 | 61.8 | 97.5 | 102 | 108 | 92.9 | 37.1 | 95 | 99.8 | 98.5 | 86 | 41.6 | 99 | 99.2 | 102 | 69.2 | 39.1 |  | 2.24 | 1.58 | 0.991 | 3.7 | 2.4 | 4.6 | 5.4 | 7.2
11 | NC[C@@H]1O[C@H](O[C@@H]2[C@@H](CO)OC(O[C@@H]3[C@@H](O)[C@H](N)C[C@H](N)[C@H]3OC3O[C@H](CN)[C@@H](O)[C@H](O)[C@H]3N)[C@@H]2O)[C@H](N)[C@@H](O)[C@@H]1O (stereo not given in full) [NEOMYCIN TRISULFATE] | 96.6 | 103 | 96.3 | 91.7 | 97.3 |  |  |  |  |  |  |  |  |  |  |  |  |  |  |  |  |  |  |  |  | > 10 |  |  |  | 0 |  |  |  | 
12 | CS(=O)(=O)c1ccc(Oc2cc(F)cc(C#N)c2)c2c1[C@H](O)C(F)(F)C2 [PT-2385] | 102 | 94.9 | 88.9 | 86.3 | 95.2 |  |  |  |  |  | 103 | 107 | 97.4 | 97.2 | 104 | 103 | 97.3 | 98.7 | 100 | 99.4 | 101 | 99.6 | 100 | 96.9 | 105 | > 10 | > 10 | > 10 | > 10 | 1.7 |  | 0 | 0 | 0
13 | N#Cc1c(Oc2ccc(F)c(NC(=O)Cc3cccc(C(F)(F)F)c3)c2)ccc2nc(NC(=O)C3CC3)sc12 [TAK-632] | 100 | 99.4 | 91.8 | 84.9 | 55.6 | 105 | 105 | 110 | 93 | 61.6 | 99.9 | 106 | 85.1 | 29 | 17.2 | 97.9 | 102 | 94.8 | 99 | 37.8 | 100 | 106 | 104 | 79 | 32.3 |  | 0.289 | 3.05 | 1.37 | 3.8 | 3 | 14.9 | 3.5 | 6.8
14 | O=C(NNC(=O)c1ccc(CNS(=O)(=O)c2ccc(F)c(Cl)c2)cc1)c1ccccc1 [TCN201] | 109 | 108 | 99.1 | 99.8 | 103 |  |  |  |  |  | 89.3 | 108 | 97 | 90.7 | 97.7 | 96.3 | 99.8 | 97.7 | 94 | 96.4 | 104 | 98.5 | 98.4 | 102 | 102 | > 10 | > 10 | > 10 | > 10 | 0 |  | 0 | 0 | 0
15 | CN(C)CCOc1ccc(/C(=C(/CCCl)c2ccccc2)c2ccccc2)cc1 [Toremifene citrate] | 109 | 98.8 | 93.7 | 96.3 | 60.4 | 94.1 | 100 | 88.7 | 90.4 | 57.5 | 110 | 103 | 104 | 90 | 68.8 | 106 | 103 | 105 | 99 | 87.8 | 99.6 | 99.3 | 99.8 | 97.6 | 91.9 |  |  | > 10 | > 10 | 2.6 | 3.4 | 2.8 | 0.1 | 0
